Reference: the NIST ThermoML archive (doi:10.1021/je7004374)

Tests used:
[1] = Liquid
[2] = refractive index (Na D-line) (dimensionless); conditions: 298.15 K; 101.33 kPa; Liquid; Standard Abbe refractometry

CC(O)CO (centres undefined) [1,2-propanediol]
[1]
Conditions	mass density [kg/m3]
283.16 K, 101.33 kPa	1043.43
288.15 K, 101.33 kPa	1039.84
293.15 K, 100 kPa	1036.22
293.15 K, 10000 kPa	1040.95
293.15 K, 20000 kPa	1045.52
293.15 K, 30000 kPa	1049.89
293.15 K, 40000 kPa	1054.08
293.15 K, 50000 kPa	1058.13
293.15 K, 60000 kPa	1062.03
293.15 K, 70000 kPa	1065.8
293.15 K, 80000 kPa	1069.46
293.15 K, 90000 kPa	1073.01
293.15 K, 100000 kPa	1076.45
293.16 K, 101.33 kPa	1036.21
298.15 K, 100 kPa	1032.55
298.15 K, 10000 kPa	1037.38
298.15 K, 20000 kPa	1042.03
298.15 K, 30000 kPa	1046.08
298.15 K, 40000 kPa	1050.75
298.15 K, 50000 kPa	1054.86
298.15 K, 60000 kPa	1058.82
298.15 K, 70000 kPa	1062.66
298.15 K, 80000 kPa	1066.37
298.15 K, 90000 kPa	1069.96
298.15 K, 100000 kPa	1073.46
298.16 K, 101.33 kPa	1032.54
303.15 K, 100 kPa	1028.84
303.15 K, 10000 kPa	1033.77
303.15 K, 20000 kPa	1038.51
303.15 K, 30000 kPa	1043.04
303.15 K, 40000 kPa	1047.38
303.15 K, 50000 kPa	1051.56
303.15 K, 60000 kPa	1055.59
303.15 K, 70000 kPa	1059.48
303.15 K, 80000 kPa	1063.24
303.15 K, 90000 kPa	1066.89
303.15 K, 100000 kPa	1070.44
303.16 K, 101.33 kPa	1028.83
308.15 K, 100 kPa	1025.1
308.15 K, 101.33 kPa	1025.09
308.15 K, 10000 kPa	1030.12
308.15 K, 20000 kPa	1034.95
308.15 K, 30000 kPa	1039.56
308.15 K, 40000 kPa	1043.98
308.15 K, 50000 kPa	1048.23
308.15 K, 60000 kPa	1052.32
308.15 K, 70000 kPa	1056.27
308.15 K, 80000 kPa	1060.1
308.15 K, 90000 kPa	1063.8
308.15 K, 100000 kPa	1067.39
313.15 K, 100 kPa	1021.31
313.15 K, 101.33 kPa	1021.3
313.15 K, 10000 kPa	1026.44
313.15 K, 20000 kPa	1031.36
313.15 K, 30000 kPa	1036.06
313.15 K, 40000 kPa	1040.55
313.15 K, 50000 kPa	1044.87
313.15 K, 60000 kPa	1049.03
313.15 K, 70000 kPa	1053.04
313.15 K, 80000 kPa	1056.92
313.15 K, 90000 kPa	1060.68
313.15 K, 100000 kPa	1064.32
318.15 K, 100 kPa	1017.48
318.16 K, 101.33 kPa	1017.48
323.15 K, 101.33 kPa	1013.61
328.16 K, 101.33 kPa	1009.71
333.15 K, 101.33 kPa	1005.76
338.16 K, 101.33 kPa	1001.77
343.15 K, 101.33 kPa	997.745
348.15 K, 101.33 kPa	993.675
353.15 K, 101.33 kPa	989.56
358.15 K, 101.33 kPa	985.405
363.15 K, 101.33 kPa	981.219

[1]
Conditions	speed of sound [m/s]
292.87 K, 45590 kPa, Sing-around technique in a fixed-path interferometer	1674.4
292.87 K, 60790 kPa, Sing-around technique in a fixed-path interferometer	1717.8
292.87 K, 101320 kPa, Sing-around technique in a fixed-path interferometer	1821.9
292.88 K, 15200 kPa, Sing-around technique in a fixed-path interferometer	1578.7
292.88 K, 30390 kPa, Sing-around technique in a fixed-path interferometer	1628.5
292.88 K, 75990 kPa, Sing-around technique in a fixed-path interferometer	1758.5
292.88 K, 91180 kPa, Sing-around technique in a fixed-path interferometer	1797.3
292.92 K, 100 kPa, Sing-around technique in a fixed-path interferometer	1523.1
293.15 K, 101.33 kPa, Pulse-echo method	1522.4
298.15 K, 101.33 kPa, Pulse-echo method	1508.4
298.15 K, 45590 kPa, Sing-around technique in a fixed-path interferometer	1661.6
298.15 K, 60790 kPa, Sing-around technique in a fixed-path interferometer	1705.2
298.15 K, 75990 kPa, Sing-around technique in a fixed-path interferometer	1746.5
298.16 K, 15200 kPa, Sing-around technique in a fixed-path interferometer	1564.2
298.16 K, 30390 kPa, Sing-around technique in a fixed-path interferometer	1615.1
298.16 K, 91180 kPa, Sing-around technique in a fixed-path interferometer	1785.6
298.16 K, 101320 kPa, Sing-around technique in a fixed-path interferometer	1810.5
298.2 K, 100 kPa, Sing-around technique in a fixed-path interferometer	1508.3
303.13 K, 60790 kPa, Sing-around technique in a fixed-path interferometer	1693.5
303.13 K, 101320 kPa, Sing-around technique in a fixed-path interferometer	1799.9
303.14 K, 15200 kPa, Sing-around technique in a fixed-path interferometer	1551
303.14 K, 30390 kPa, Sing-around technique in a fixed-path interferometer	1602.4
303.14 K, 45590 kPa, Sing-around technique in a fixed-path interferometer	1649.6
303.14 K, 75990 kPa, Sing-around technique in a fixed-path interferometer	1735.4
303.14 K, 91180 kPa, Sing-around technique in a fixed-path interferometer	1774.8
303.15 K, 101.33 kPa, Pulse-echo method	1494.3
303.18 K, 100 kPa, Sing-around technique in a fixed-path interferometer	1494.2
308.12 K, 60790 kPa, Sing-around technique in a fixed-path interferometer	1682
308.12 K, 75990 kPa, Sing-around technique in a fixed-path interferometer	1724.1
308.12 K, 91180 kPa, Sing-around technique in a fixed-path interferometer	1764
308.12 K, 101320 kPa, Sing-around technique in a fixed-path interferometer	1789.3
308.13 K, 15200 kPa, Sing-around technique in a fixed-path interferometer	1537.7
308.13 K, 30390 kPa, Sing-around technique in a fixed-path interferometer	1589.5
308.13 K, 45590 kPa, Sing-around technique in a fixed-path interferometer	1637.6
308.15 K, 101.33 kPa, Pulse-echo method	1480.2
308.17 K, 100 kPa, Sing-around technique in a fixed-path interferometer	1480.1
313.15 K, 101.33 kPa, Pulse-echo method	1466
313.31 K, 15200 kPa, Sing-around technique in a fixed-path interferometer	1524.2
313.31 K, 30390 kPa, Sing-around technique in a fixed-path interferometer	1576.4
313.31 K, 45590 kPa, Sing-around technique in a fixed-path interferometer	1625
313.31 K, 60790 kPa, Sing-around technique in a fixed-path interferometer	1669.9
313.31 K, 75990 kPa, Sing-around technique in a fixed-path interferometer	1712.6
313.31 K, 91180 kPa, Sing-around technique in a fixed-path interferometer	1752.8
313.31 K, 101320 kPa, Sing-around technique in a fixed-path interferometer	1778.5
313.35 K, 100 kPa, Sing-around technique in a fixed-path interferometer	1465.4

Conditions	refractive index
[2]	1.431
